This test has as its system MV-4-11 cells. Nature of the test: Gene expression microarray analysis (Affymetrix PrimeView) and GSEA. Further details: RFU PODN (11730768_x_at) / Fold change /veh PODN (11730768_x_at) / RFU LINC00158 (11744669_a_at) / Fold change /veh LINC00158 (11744669_a_at) / RFU DUSP10 (11751237_a_at) / Fold change /veh DUSP10 (11751237_a_at) / RFU ID3 (11757404_x_at) / Fold change /veh ID3 (11757404_x_at) / RFU PLEKHG5 (11737974_s_at) / Fold change /veh PLEKHG5 (11737974_s_at) / RFU LRRC4B (11730491_at) / Fold change /veh LRRC4B (11730491_at) / RFU GIMAP4 (11747438_a_at) / Fold change /veh GIMAP4 (11747438_a_at) / RFU KRT8 (11758183_x_at) / Fold change /veh KRT8 (11758183_x_at) / RFU CNN1 (11734310_a_at) / Fold change /veh CNN1 (11734310_a_at) / RFU VPS37D (11726825_at) / Fold change /veh VPS37D (11726825_at) / RFU C10orf10 (11716522_x_at) / Fold change /veh C10orf10 (11716522_x_at) / RFU KIR2DL2 /// KIR2DL4 /// KIR2DL5A /// KIR2DL5B /// KIR2DS1 /// KIR2DS2 /// KIR2DS3 /// KIR2DS4 /// KIR3DL3 /// KIR3DL3 /// KIR3DS1 (11738374_at) / Fold change /veh KIR2DL2 /// KIR2DL4 /// KIR2DL5A /// KIR2DL5B /// KIR2DS1 /// KIR2DS2 /// KIR2DS3 /// KIR2DS4 /// KIR3DL3 /// KIR3DL3 /// KIR3DS1 (11738374_at) / RFU C1QL1 (11718748_at) / Fold change /veh C1QL1 (11718748_at) / RFU TMPRSS4 (11747572_a_at) / Fold change /veh TMPRSS4 (11747572_a_at) / RFU HAMP (11756126_x_at) / Fold change /veh HAMP (11756126_x_at) / RFU RNFT2 (11725882_a_at) / Fold change /veh RNFT2 (11725882_a_at) / RFU NR4A2 (11747474_a_at) / Fold change /veh NR4A2 (11747474_a_at) / RFU ABCC12 (11746883_a_at) / Fold change /veh ABCC12 (11746883_a_at) / RFU TMEM136 (11760407_x_at) / Fold change /veh TMEM136 (11760407_x_at) / RFU CLDN22 /// WWC2 (11732394_at) / Fold change /veh CLDN22 /// WWC2 (11732394_at) / RFU HLA-DPB1 (11760878_x_at) / Fold change /veh HLA-DPB1 (11760878_x_at) / RFU SPINT1 (11716480_a_at) / Fold change /veh SPINT1 (11716480_a_at) / RFU GAP43 (11754022_s_at) / Fold change /veh GAP43 (11754022_s_at) / RFU A4GNT (11735810_at) / Fold change /veh A4GNT (11735810_at) / RFU PRB3 (11715151_x_at) / Fold change /veh PRB3 (11715151_x_at) / RFU TUBB4B (11761932_at) / Fold change /veh TUBB4B (11761932_at) / RFU CAPN14 (11732068_a_at) / Fold change /veh CAPN14 (11732068_a_at) / RFU TMCC2 (11721928_a_at) / Fold change /veh TMCC2 (11721928_a_at) / RFU IRGQ (11745062_a_at) / Fold change /veh IRGQ (11745062_a_at) / RFU FAM174B (11720279_a_at) / Fold change /veh FAM174B (11720279_a_at) / RFU TMPRSS4 (11748680_a_at) / Fold change /veh TMPRSS4 (11748680_a_at) / RFU FAM212B (11763350_a_at) / Fold change /veh FAM212B (11763350_a_at) / RFU PLEKHG5 (11743358_a_at) / Fold change /veh PLEKHG5 (11743358_a_at) / RFU ZSCAN30 (11745921_a_at) / Fold change /veh ZSCAN30 (11745921_a_at) / RFU CMKLR1 (11741424_a_at) / Fold change /veh CMKLR1 (11741424_a_at) / RFU LOC101060620 /// MAPK8IP1 (11723275_at) / Fold change /veh LOC101060620 /// MAPK8IP1 (11723275_at) / RFU SPTSSB (11747773_x_at) / Fold change /veh SPTSSB (11747773_x_at) / RFU PRSS12 (11739890_at) / Fold change /veh PRSS12 (11739890_at) / RFU BIN1 (11741810_x_at) / Fold change /veh BIN1 (11741810_x_at) / RFU WNT11 (11732464_a_at) / Fold change /veh WNT11 (11732464_a_at) / RFU C10orf10 (11716521_a_at) / Fold change /veh C10orf10 (11716521_a_at) / RFU C5orf56 (11738089_at) / Fold change /veh C5orf56 (11738089_at) / RFU CYB561 (11721691_x_at) / Fold change /veh CYB561 (11721691_x_at) / RFU ANKRD19P (11752326_a_at) / Fold change /veh ANKRD19P (11752326_a_at) / RFU OR2T12 /// OR2T33 /// OR2T8 (11738714_s_at) / Fold change /veh OR2T12 /// OR2T33 /// OR2T8 (11738714_s_at) / RFU VCAN (11748164_a_at) / Fold change /veh VCAN (11748164_a_at) / RFU JSRP1 (11732532_at) / Fold change /veh JSRP1 (11732532_at) / RFU KRTAP10-11 (11738290_x_at) / Fold change /veh KRTAP10-11 (11738290_x_at) / RFU MYO3A (11730013_a_at) / Fold change /veh MYO3A (11730013_a_at) / RFU EBF3 (11725865_a_at) / Fold change /veh EBF3 (11725865_a_at) / RFU CAMK2N1 (11719241_x_at) / Fold change /veh CAMK2N1 (11719241_x_at) / RFU C5orf56 (11738088_a_at) / Fold change /veh C5orf56 (11738088_a_at) / RFU OLFML3 (11715873_a_at) / Fold change /veh OLFML3 (11715873_a_at) / RFU LOC100653217 /// NTM (11731650_a_at) / Fold change /veh LOC100653217 /// NTM (11731650_a_at) / RFU MAPK11 (11762145_a_at) / Fold change /veh MAPK11 (11762145_a_at) / RFU FIZ1 (11724087_x_at) / Fold change /veh FIZ1 (11724087_x_at) / RFU OASL (11726364_x_at) / Fold change /veh OASL (11726364_x_at) / RFU SOX15 (11748057_x_at) / Fold change /veh SOX15 (11748057_x_at) / RFU CD79A (11719716_a_at) / Fold change /veh CD79A (11719716_a_at) / RFU HIST1H1D (11736915_at) / Fold change /veh HIST1H1D (11736915_at) / RFU CASKIN2 (11723855_a_at) / Fold change /veh CASKIN2 (11723855_a_at) / RFU LOC730098 (11760151_x_at) / Fold change /veh LOC730098 (11760151_x_at) / RFU OR4N2 (11742367_at) / Fold change /veh OR4N2 (11742367_at) / RFU PRRT2 (11749266_a_at) / Fold change /veh PRRT2 (11749266_a_at) / RFU SNX32 (11753110_a_at) / Fold change /veh SNX32 (11753110_a_at) / RFU CDHR5 (11726645_a_at) / Fold change /veh CDHR5 (11726645_a_at) / RFU RCAN1 (11760418_a_at) / Fold change /veh RCAN1 (11760418_a_at) / RFU FAM167A (11723789_a_at) / Fold change /veh FAM167A (11723789_a_at) / RFU FAM26E (11764081_at) / Fold change /veh FAM26E (11764081_at) / RFU ISYNA1 (11749810_s_at) / Fold change /veh ISYNA1 (11749810_s_at) / RFU ACY1 (11761880_at) / Fold change /veh ACY1 (11761880_at) / RFU 11764098_at / Fold change /veh 11764098_at / RFU SAMD14 (11745864_x_at) / Fold change /veh SAMD14 (11745864_x_at) / RFU NPB (11741838_a_at) / Fold change /veh NPB (11741838_a_at) / RFU TMPRSS6 (11731388_a_at) / Fold change /veh TMPRSS6 (11731388_a_at) / RFU KRTAP10-2 (11738614_at) / Fold change /veh KRTAP10-2 (11738614_at) / RFU ARHGAP8 /// PRR5-ARHGAP8 (11727945_x_at) / Fold change /veh ARHGAP8 /// PRR5-ARHGAP8 (11727945_x_at) / RFU KRTAP5-7 /// NADSYN1 (11734609_at) / Fold change /veh KRTAP5-7 /// NADSYN1 (11734609_at) / RFU RASL12 (11751679_a_at) / Fold change /veh RASL12 (11751679_a_at) / RFU CDKN2B (11736163_a_at) / Fold change /veh CDKN2B (11736163_a_at) / RFU PRF1 (11729649_at) / Fold change /veh PRF1 (11729649_at) / RFU, ZNF638 /// ZNF638-IT1 / Fold change vs veh, ZNF638 /// ZNF638-IT1 / RFU, PANK3 / Fold change vs veh, PANK3 / RFU, SH3YL1 / Fold change vs veh, SH3YL1 / RFU, ZEB2 / Fold change vs veh, ZEB2 / RFU, NRIP1 / Fold change vs veh, NRIP1 / RFU, PTTG1IP / Fold change vs veh, PTTG1IP / RFU, CAPN2 / Fold change vs veh, CAPN2 / RFU, MED14 / Fold change vs veh, MED14 / RFU, SNORA58 / Fold change vs veh, SNORA58 / RFU, C1orf63 / Fold change vs veh, C1orf63 / RFU, LRRFIP1 / Fold change vs veh, LRRFIP1 / RFU, NDUFAF7 / Fold change vs veh, NDUFAF7 / RFU, SLC12A2 / Fold change vs veh, SLC12A2 / RFU, IBTK / Fold change vs veh, IBTK / RFU, ESF1 / Fold change vs veh, ESF1 / Fold change vs veh, TMEM50B / RFU, TAOK1 / Fold change vs veh, TAOK1 / RFU, ACBD3 / Fold change vs veh, ACBD3 / RFU, TMA16 / Fold change vs veh, TMA16 / RFU, RWDD3 / Fold change vs veh, RWDD3 / RFU, BCAT1 / Fold change vs veh, BCAT1 / RFU, EDEM3 / Fold change vs veh, EDEM3 / RFU, TMEM33 / Fold change vs veh, TMEM33 / RFU, WDR75 / Fold change vs veh, WDR75 / RFU, AHCTF1 / Fold change vs veh, AHCTF1 / RFU, TFRC / Fold change vs veh, TFRC / RFU, ZDHHC17 / Fold change vs veh, ZDHHC17 / RFU, NOM1 / Fold change vs veh, NOM1 / RFU, ARL8B / Fold change vs veh, ARL8B / RFU, ZBTB11 / Fold change vs veh, ZBTB11 / RFU, TAMM41 / Fold change vs veh, TAMM41 / RFU, KIAA1704 /// LOC100996395 / Fold change vs veh, KIAA1704 /// LOC100996395 / RFU, ING1 / Fold change vs veh, ING1 / RFU, TRMT61B / Fold change vs veh, TRMT61B / RFU, FUBP3 / Fold change vs veh, FUBP3 / RFU, TP53 / Fold change vs veh, TP53 / RFU, TNKS2 / Fold change vs veh, TNKS2 / RFU, ZFP14 / Fold change vs veh, ZFP14 / RFU, ACTR2 / Fold change vs veh, ACTR2 / RFU, PPP3R1 / Fold change vs veh, PPP3R1 / RFU, PIK3R1 / Fold change vs veh, PIK3R1 / RFU, HNRNPA1 / Fold change vs veh, HNRNPA1 / RFU, RNF170 / Fold change vs veh, RNF170 / RFU, ZNF28 / Fold change vs veh, ZNF28 / RFU, RNGTT / Fold change vs veh, RNGTT / RFU, OGT / Fold change vs veh, OGT / RFU, BRD1 / Fold change vs veh, BRD1 / RFU, MARS / Fold change vs veh, MARS / RFU, ZNF655 / Fold change vs veh, ZNF655 / RFU, FAHD1 / Fold change vs veh, FAHD1 / RFU, BDP1 / Fold change vs veh, BDP1 / RFU, LRRCC1 / Fold change vs veh, LRRCC1 / RFU, ARID1A / Fold change vs veh, ARID1A / RFU, ZNF146 / Fold change vs veh, ZNF146 / RFU, ZNF330 / Fold change vs veh, ZNF330 / RFU, GPN3 / Fold change vs veh, GPN3 / RFU, C9orf123 / Fold change vs veh, C9orf123 / RFU, N4BP2L2 / Fold change vs veh, N4BP2L2 / RFU, ARFIP1 / Fold change vs veh, ARFIP1 / RFU, FAM179B / Fold change vs veh, FAM179B / RFU, BCL10 / Fold change vs veh, BCL10 / RFU, UHRF1BP1L / Fold change vs veh, UHRF1BP1L / RFU, BET1 / Fold change vs veh, BET1 / RFU, CNOT2 / Fold change vs veh, CNOT2 / RFU, ZNF268 / Fold change vs veh, ZNF268 / Fold change vs veh, ZNF507 / RFU, DGCR2 / Fold change vs veh, DGCR2 / RFU, WDSUB1 / Fold change vs veh, WDSUB1 / Fold change vs veh, HSP90B1 /// MIR3652 / RFU, ADSS / Fold change vs veh, ADSS / RFU, GK / Fold change vs veh, GK / RFU, ZNF148 / Fold change vs veh, ZNF148 / RFU, TAF9 / Fold change vs veh, TAF9 / RFU, SLC1A5 / Fold change vs veh, SLC1A5 / RFU, SLMO2 / Fold change vs veh, SLMO2 / RFU, ABCC4 / Fold change vs veh, ABCC4 / RFU, LOC101060439 /// RAP1B / Fold change vs veh, LOC101060439 /// RAP1B / RFU, RFX7 / Fold change vs veh, RFX7 / RFU, GTPBP10 / Fold change vs veh, GTPBP10 / RFU, CNEP1R1 / Fold change vs veh, CNEP1R1 / RFU, BIVM-ERCC5 /// ERCC5 / Fold change vs veh, BIVM-ERCC5 /// ERCC5 / RFU, ILF3 / Fold change vs veh, ILF3 / RFU 11762660_at / Fold change /veh 11762660_at / RFU VCAN (11757783_s_at) / Fold change /veh VCAN (11757783_s_at) / RFU DDX43 (11728927_at) / Fold change /veh DDX43 (11728927_at) / RFU KRT8 (11758188_x_at) / Fold change /veh KRT8 (11758188_x_at) / RFU NKD1 (11759106_at) / Fold change /veh NKD1 (11759106_at) / RFU SRD5A1 (11742802_a_at) / Fold change /veh SRD5A1 (11742802_a_at) / RFU TPSAB1 /// TPSB2 (11721975_s_at) / Fold change /veh TPSAB1 /// TPSB2 (11721975_s_at) / RFU GSTM3 (11746129_a_at) / Fold change /veh GSTM3 (11746129_a_at) / RFU IL23R (11737362_x_at) / Fold change /veh IL23R (11737362_x_at) / RFU TMEM51 (11727254_a_at) / Fold change /veh TMEM51 (11727254_a_at) / RFU PIWIL2 (11732686_x_at) / Fold change /veh PIWIL2 (11732686_x_at) / RFU ORM1 (11744905_x_at) / Fold change /veh ORM1 (11744905_x_at) / RFU CCDC152 (11743942_at) / Fold change /veh CCDC152 (11743942_at) / RFU ECM1 (11717891_a_at) / Fold change /veh ECM1 (11717891_a_at) / RFU IL23R (11748794_a_at) / Fold change /veh IL23R (11748794_a_at) / RFU TNFAIP8L3 (11732012_x_at) / Fold change /veh TNFAIP8L3 (11732012_x_at) / RFU MBOAT4 (11741988_at) / Fold change /veh MBOAT4 (11741988_at) / RFU 11764193_at / Fold change /veh 11764193_at / RFU TMEM53 (11763286_at) / Fold change /veh TMEM53 (11763286_at) / RFU MAGEB2 (11727129_at) / Fold change /veh MAGEB2 (11727129_at) / RFU TMEM200A (11744735_a_at) / Fold change /veh TMEM200A (11744735_a_at) / RFU CCDC152 (11751479_a_at) / Fold change /veh CCDC152 (11751479_a_at) / RFU FAM211A (11726209_a_at) / Fold change /veh FAM211A (11726209_a_at) / RFU RGS16 (11746705_a_at) / Fold change /veh RGS16 (11746705_a_at) / RFU VCAN (11755009_s_at) / Fold change /veh VCAN (11755009_s_at) / RFU RHOB (11743442_s_at) / Fold change /veh RHOB (11743442_s_at) / RFU RGS16 (11720943_a_at) / Fold change /veh RGS16 (11720943_a_at) / RFU RGS16 (11720944_at) / Fold change /veh RGS16 (11720944_at) / RFU, VPS4B / Fold change vs veh, VPS4B / RFU, CREB1 / Fold change vs veh, CREB1 / RFU, DNAJC13 / Fold change vs veh, DNAJC13 / RFU, GNAQ / Fold change vs veh, GNAQ / RFU, CDK5R1 / Fold change vs veh, CDK5R1 / RFU, ZRANB3 / Fold change vs veh, ZRANB3 / RFU, CUL4A / Fold change vs veh, CUL4A / RFU, CCNY / Fold change vs veh, CCNY / RFU, UFL1 / Fold change vs veh, UFL1 / RFU, COG3 / Fold change vs veh, COG3 / RFU, DIAPH2 / Fold change vs veh, DIAPH2 / RFU, SKA2 / Fold change vs veh, SKA2 / RFU, AFF3 / Fold change vs veh, AFF3 / RFU, LMF1 / Fold change vs veh, LMF1 / RFU, IPO11 / Fold change vs veh, IPO11 / RFU, DFFB / Fold change vs veh, DFFB / RFU, FOXP1 / Fold change vs veh, FOXP1 / RFU, CARD8 / Fold change vs veh, CARD8 / RFU, STRN3 / Fold change vs veh, STRN3 / RFU, ADK / Fold change vs veh, ADK / RFU, RASSF2 / Fold change vs veh, RASSF2 / RFU, WIPF1 / Fold change vs veh, WIPF1 / RFU, LARP1B / Fold change vs veh, LARP1B / RFU, RASA1 / Fold change vs veh, RASA1 / RFU, RB1 / Fold change vs veh, RB1 / RFU, PPFIA1 / Fold change vs veh, PPFIA1 / RFU, MAT2A / Fold change vs veh, MAT2A / RFU, CCT5 / Fold change vs veh, CCT5 / RFU, WDR92 / Fold change vs veh, WDR92 / RFU, CUX1 / Fold change vs veh, CUX1 / RFU, TTC7A / Fold change vs veh, TTC7A / RFU, TMEM135 / Fold change vs veh, TMEM135 / RFU, DEPTOR / Fold change vs veh, DEPTOR / RFU, CPM / Fold change vs veh, CPM / RFU, DNAJB6 / Fold change vs veh, DNAJB6 / RFU, CACNA2D3 / Fold change vs veh, CACNA2D3 / RFU, DTX4 / Fold change vs veh, DTX4 / RFU, TFCP2 / Fold change vs veh, TFCP2 / RFU, GMCL1 /// GMCL1P1 / Fold change vs veh, GMCL1 /// GMCL1P1 / RFU, AEBP2 / Fold change vs veh, AEBP2 / RFU, SNHG1 /// SNORD22 /// SNORD25 /// SNORD26 /// SNORD27 /// SNORD28 /// SNORD29 /// SNORD31 / Fold change vs veh, SNHG1 /// SNORD22 /// SNORD25 /// SNORD26 /// SNORD27 /// SNORD28 /// SNORD29 /// SNORD31 / Fold change (Aza/veh), C12orf56 (ProbeSet 11735607_a_at) / Fold change (ACY-1035/veh), C12orf56 (ProbeSet 11735607_a_at) / Fold change (Aza/veh), FGFR1OP (ProbeSet 11751329_s_at) / Fold change (ACY-1035/veh), FGFR1OP (ProbeSet 11751329_s_at) / Fold change (Aza/veh), VPS36 (ProbeSet 11739960_a_at) / Fold change (ACY-1035/veh), VPS36 (ProbeSet 11739960_a_at) / RFU SYPL1 (11715823_x_at) / Fold change /veh SYPL1 (11715823_x_at) / RFU IGFBP7 (11715501_s_at) / Fold change /veh IGFBP7 (11715501_s_at) / RFU REEP3 (11722064_at) / Fold change /veh REEP3 (11722064_at) / RFU IGLL1 (11728026_x_at) / Fold change /veh IGLL1 (11728026_x_at): dose or concentration left out as unconfirmed. The format is cell-based, human. Particulars: ProbeSet 11760938_a_at; LIST D.

For the molecule `Nc1ccc(-c2cccs2)cc1NC(=O)c1ccc2c(c1)cc(C1CC1)n2CCN1CCOCC1` [ACY-1035], the “Fold change vs veh, MAT2A” value stood at 0.84.

Values taken from paper PMC5218480 (PLoS ONE, 2017).
